According to patent publication US20230346943A1, “SPACER-MEDIATED CONTROL OF UNCAGING PHOTOCAGED MOLECULES” (The Regents of the University of California, priority 2020, published 2023):

Assays:
[1] = Photolysis (photon uncaging) kinetics of photocaged thymidine monitored by UPLC; type: physicochemical; details: for Rate constant (first order) for the decay of photocaged thymidine (kdecay) / Quantum efficiency (Φ) of release for thymidine (dT) / Quantum efficiency (Φ) of release for thymidine-retaining byproduct(s): 35% (v/v) aq methanol; for Efficiency of thymidine release (max): maximal free thymidine released on photolysis; for Formation of thymidine-bearing byproduct dT^N-DEACM on photolysis: regardless of the light wavelength (365, 420, 455 nm)
Experimental: Photolysis of 1 was performed in an aqueous medium (0.21 mM in 35% (v/v) aq methanol), and its uncaging kinetics was determined by monitoring exposed solutions using UV-vis spectroscopy and UPLC (FIGS. 3A-3D). UV-vis spectra acquired after photolysis at 420 nm (exposure time = 0-20 min) show absorption changes in an exposure time-dependent manner (FIGS. 5A-5F), but these are not applicable for the detection and quantitation of thymidine released. In contrast, UPLC traces acquired after photolysis (FIG. 3A) show the disappearance of 1 with the concomitant growth of free thymidine (dT) (tr = 3.1 min) along with coumarin photocage detached 5 (tr = 6.5 min). The area under curve (AUC) analysis of these peaks provided a decay curve for 1 (FIG. 3B). Its regression analysis allowed determining a rate constant for first-order decay (kdecay = 1.5 ×10^-3 sec^-1), and quantum efficiency for thymidine release (ΦdT = 0.015) (Table 1).
We similarly evaluated the uncaging kinetics of 2 dT^O-Bn-DEACM (0.17 mM in 35% (v/v) aq methanol) by irradiation at 420 nm (FIGS. 3C-3D). Its photolysis led to smaller changes in UV-vis spectra with lack of a clear trend compared to 1 dT^O-DEACM (FIGS. 5A-5F). Overlaid UPLC traces show time-dependent, rapid uncaging of 2 with ~65% release of thymidine achieved after an initial exposure for 5 min. […] Regression analysis of its decay curve provided a decay constant (kdecay = 1.1×10^-3 sec^-1), which is slightly lower than that of 1 (Table 1). However, its lack of the byproduct formation makes a positive contribution to enhancing its quantum efficiency for thymidine release (ΦdT = 0.025) compared to 1 (ΦdT = 0.015). This clean uncaging kinetics offers evidence for greater advantages in thymidine uncaging by the extended spacer than the direct ether linkage.
UPLC was performed for homogeneity analysis and compound characterization in a Waters Acquity System combined with a photodiode array (PDA) detector. The UPLC analysis involved running a sample in a C4 BEH column (100 × 2.1 mm, 300 Å) at a flow rate of 0.2 mL min^-1. The elution occurred in a linear gradient composed of two mobile solvents, water and acetonitrile, each containing TFA (0.1% v/v) (eluent A and B respectively). Its method consisted of an initial phase 1% B (0-1.4 min), a linear increased to 80% B (1.4-13.4 min), a decrease to 50% B (13.4-13.8 min), a decrease to 1% B (13.8-14.4 min) and finally an isocratic elution at 1% B (14.4-18 min). This method was also applied for the kinetic analysis of product release.
Light Sources. Photolytic studies for thymidine release were performed with three light sources. These include: i) UV lamp (XX-15A, Spectroline®) for irradiation at long wavelength UV light (UVA) with a maximal intensity at 365 nm;^4 ii) LZC-420 lamp (Luzchem Research) for visible light at 420 nm; iii) LZC-LBL light emitting diode (LED) lamp (Luzchem Research) for visible (blue) light 445-465 nm. Photon flux density (qn,p = qp/NA, mol × s^-1) of each lamp was determined by ferrioxalate actinometry according to a standard protocol.^52, ^53 […]
Uncaging Kinetics and Analysis. Typically, a solution of photocaged thymidine 1 or 2 (dT^caged: 0.05-0.1 mg/mL) in aq methanol (30-35% v/v) was prepared and exposed to the light at a distance of ~5 cm. After each exposure period, the solution was aliquoted out as a function of irradiation time (0-30 min), and each aliquot was analyzed by UPLC and UV-vis absorption spectrometry to determine the kinetics of thymidine release and byproduct formation. Certain aliquot was further analyzed by HPLC-MS mass spectrometry (ESI) to validate the identity of thymidine and released molecular species in the photolysed solution.
Quantum efficiency (Φ) for the release of thymidine (dT) is defined in eq 1, and its value was calculated according to a standard method as noted in eq 2:^53 […]

[2] = UV-vis absorption property; details: for λmax: UV-vis spectrum; for λmax / Molar absorptivity ε at λmax: 35% aq methanol
Experimental: We observed the absorption properties of the coumarin (DEACM), a common photocage present in 1 and 2, as shown in their UV-vis spectra (FIG. 2A).
Spectra for UV-vis Absorption Were Recorded With a Perkin Elmer Lamda 20 Spectrophotometer.

[3] = photon uncaging ability of the N-isomer; cited from earlier work

Row | Compound | Rate constant (first order) for the decay of photocaged thymidine (kdecay) ([1]; irradiation 365 nm (UVA)) [s⁻¹] | Quantum efficiency (Φ) of release for thymidine (dT) ([1]; irradiation 365 nm) | Quantum efficiency (Φ) of release for thymidine-retaining byproduct(s) ([1]; irradiation 365 nm) | Rate constant (first order) for the decay of photocaged thymidine (kdecay) ([1]; irradiation 420 nm (visible)) [s⁻¹] | Quantum efficiency (Φ) of release for thymidine (dT) ([1]; irradiation 420 nm) | Quantum efficiency (Φ) of release for thymidine-retaining byproduct(s) ([1]; irradiation 420 nm) | Rate constant (first order) for the decay of photocaged thymidine (kdecay) ([1]; irradiation 455 nm (visible)) [s⁻¹] | Quantum efficiency (Φ) of release for thymidine (dT) ([1]; irradiation 455 nm) | Quantum efficiency (Φ) of release for thymidine-retaining byproduct(s) ([1]; irradiation 455 nm) | Efficiency of thymidine release (max) [1] [%] | Formation of thymidine-bearing byproduct dT^N-DEACM on photolysis [1] | λmax [2] [nm] | Molar absorptivity ε at 455 nm [2] | Molar absorptivity ε at λmax [2] | Decay on irradiation relative to 1 dT^O-DEACM [3] | Undesired species (tr = 7.8 min) in UPLC traces after photolysis ([1]; irradiation 420 nm) | Release of thymidine after initial exposure ([1]; irradiation 420 nm, exposure 5 min) | Faster decay than 1 at 455 nm ([1]; irradiation 455 nm, relative to 1) | Efficiency of thymidine release (max) ([1]; listed as new photocaged thymidine) | Photolysis rate at 455 nm lower than at 420 nm ([1]; ratio of decay rates, 455 nm vs 420 nm)
1 | CCN(CC)c1ccc2c(COc3nc(=O)n([C@H]4C[C@H](O)[C@@H](CO)O4)cc3C)cc(=O)oc2c1 [Compound 1, dT^O-DEACM, reference compound] | 0.00089 | 0.006 | 0.005 | 0.0015 | 0.015 | 0.017 | 0.00012 | 0.017 | 0.023 | 58 | induces a thymidine-bearing byproduct | 393 | 1,115 M^-1cm^-1 | 10,209 M^-1cm^-1 |  |  |  |  |  | 
2 | CCN(CC)c1ccc2c(Cn3c(=O)c(C)cn(C4CC(O)C(CO)O4)c3=O)cc(=O)oc2c1 (stereo not shown) [dT^N-DEACM] |  |  |  |  |  |  |  |  |  |  |  |  |  |  | approximately two orders of magnitude more slowly |  |  |  |  | 
3 | dT^O-Bn-DEACM [Compound 2] | 0.0011 | 0.014 |  | 0.0011 | 0.025 |  | 0.00058 | 0.081 |  | 94 | lack of the byproduct formed | 390 | 1,653 M^-1cm^-1 | 11,603 M^-1cm^-1 |  | have not observed the undesired species | ~ 65% | ~ 5 Fold | ~ 94% | approximately 2 Fold
